Measured values taken from BindingDB's records for patent US20250346571 (Xizang Haisco Pharmaceutical, 2025).

Target: Poly [ADP-ribose] polymerase 1 (Homo sapiens, UniProt P09874)
Experiment: PARP-1 Enzyme Activity Test Experiment
Description: PARP-1 chemical […] detection kit was purchased from BPS Bioscience. The histone solution in the kit was diluted 5× with 1×PBS, and 25 μL of the diluted histone solution was added to a microwell plate and incubated overnight at 4° C. After the incubation, the plate was washed three times with PBST (0.05% Tween-20). 100 μL of the blocking solution was added to the microwell plate and incubated at 25° C. for 90 minutes. After the incubation was completed, the plate was washed three times with PBST. 2.5 μL of compounds at different concentrations diluted in test buffer and 12.5 μL of substrate mixed solution (1.25 μL 10×PARP test buffer; 1.25 μL 10×PARP test mixed solution; 2.5 μL Activated DNA, 7.5 μL double-distilled water) were added to the microwell plate. The PARP-1 enzyme was diluted to 2 ng/μL, […] was added to the microwell plate, and the reaction system was incubated at 25° C. for 60 minutes. After the incubation was completed, the plate was washed three times with PBST. Streptavidin-HRP was diluted 50× with a blocking solution, and 25 μL of the diluent was added to the microwell plate and incubated at 25° C. for 30 minutes. […] ELISA ECL substrate A and substrate B were uniformly mixed at a ratio of 1:1 (v/v), 50 μL of the mixture was added to the microwell plate, and the chemiluminescence value was read.

Chain of Poly [ADP-ribose] polymerase 1 (P09874 whole entry): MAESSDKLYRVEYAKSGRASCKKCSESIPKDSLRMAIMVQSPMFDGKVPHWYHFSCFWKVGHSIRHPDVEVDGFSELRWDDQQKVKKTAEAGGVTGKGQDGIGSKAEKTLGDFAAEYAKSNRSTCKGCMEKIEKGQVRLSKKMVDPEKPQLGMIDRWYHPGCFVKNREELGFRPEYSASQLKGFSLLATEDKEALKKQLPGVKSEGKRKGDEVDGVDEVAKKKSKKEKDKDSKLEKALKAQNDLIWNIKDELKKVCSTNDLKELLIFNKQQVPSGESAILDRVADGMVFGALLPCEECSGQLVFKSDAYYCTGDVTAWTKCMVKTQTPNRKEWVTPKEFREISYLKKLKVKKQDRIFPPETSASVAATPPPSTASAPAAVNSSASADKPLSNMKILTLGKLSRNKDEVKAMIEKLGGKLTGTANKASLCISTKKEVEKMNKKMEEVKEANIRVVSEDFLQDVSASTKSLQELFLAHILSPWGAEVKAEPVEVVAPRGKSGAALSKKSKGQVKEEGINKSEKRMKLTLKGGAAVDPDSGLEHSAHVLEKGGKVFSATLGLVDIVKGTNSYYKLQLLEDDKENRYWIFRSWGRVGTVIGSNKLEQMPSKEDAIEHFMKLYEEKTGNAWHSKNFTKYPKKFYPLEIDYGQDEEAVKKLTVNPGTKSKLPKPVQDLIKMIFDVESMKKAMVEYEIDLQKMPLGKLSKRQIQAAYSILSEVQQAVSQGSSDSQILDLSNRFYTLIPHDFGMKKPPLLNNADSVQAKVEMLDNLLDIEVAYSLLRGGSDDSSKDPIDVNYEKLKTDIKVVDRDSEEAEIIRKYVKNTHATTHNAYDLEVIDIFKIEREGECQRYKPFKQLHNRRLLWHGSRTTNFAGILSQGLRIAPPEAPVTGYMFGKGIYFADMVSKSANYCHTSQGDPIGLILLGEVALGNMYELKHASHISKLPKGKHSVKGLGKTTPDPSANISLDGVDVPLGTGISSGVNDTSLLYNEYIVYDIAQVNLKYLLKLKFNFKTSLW

IC50: < 5 nM
SMILES: Cn1cc(NC(=O)c2ccc(N3CCN(Cc4ccc5nc(C(F)F)c(=O)[nH]c5c4F)CC3)c(F)n2)cn1 [US20250346571, Compound 15]
